Here are results for 13 molecules from patent publication US20130259884A1, “PEPTIDES” ([…] SL, priority 2010, published 2013).

Where a SMILES comes first, the peptide text is derived from it.

A short description of the series: Water solubility of peptides when preparing stock solutions. As to conditions: stock solution in sterile distilled water or 100% DMSO; read-out: solubility of peptide (water soluble or water insoluble, dissolved in DMSO). Format: physicochemical. The protocol: For challenge, peptides were administered as follows: • Individual peptides (soluble). Individual water soluble peptides were dissolved as 10, 5 or 2.5 mg/ml stock solutions in sterile distilled water. Before use, each peptide was diluted in water to 2 mg/ml and 10 μl of this 2 mg/ml mix was added to 990 μl of media. Then 100 μl of this peptide/media mix was added to 100 μl of media containing 350,000 PBMC in an ELISPOT anti-IL-4 coated cell culture plate well for a final peptide concentration of 10 μg/ml. Identically diluted media only was added to the cells and used for the no peptide media control wells (media only). • Individual peptides (DMSO). Individual water insoluble peptides were dissolved in 100% DMSO to a stock concentration of 50 mg/ml. Before use each peptide was diluted in water to 2 mg/ml and then 10 μl of the 2 mg/ml mix was added to 990 μl of cell-culture media. Then 100 μl of this peptide/media mix was added to 100 μl of media containing 350,000 PBMC in an ELISPOT anti-IL-4 coated cell culture plate well for a final peptide concentration of 10 μg/ml. Identically diluted media only was added to the cells and used for the no peptide media control wells (media only). • A combination preparation containing Alt a 1 soluble peptides (33.2, 34.3, 35.4, 35.5, 37.3.1, 37.4.1, L6-5.01, L10-1.01, L10-2.01, L10-3), called Alt a 1 Sol. Each peptide was diluted from water stock to 2 mg/ml in sterile distilled water. Then 10 μl of each peptide required for the combined preparation was mixed and brought up to 1 ml in media. Then 100 μl of this peptide/media mix was added to 100 μl of media containing 350,000 PBMC in an ELISPOT anti-IL-4 coated cell culture plate well for a final concentration of each peptide of 10 μg/ml. Identically diluted media only was used for the no peptide control wells (media only). • A combination preparation containing Alt a 1 DMSO peptides (32.2.1, 38.2.1, 35.2, 35.3, L6-2, L6-3, L6-4, 38.3, 37.2), called Alt a 1 DMSO. Each peptide was diluted from DMSO stock to 2 mg/ml in sterile distilled water. Then 10 μl of each peptide required for the combined preparation was mixed and brought up to 1 ml in media. Then 100 μl of this peptide/media mix is added to 100 μl of media containing 350,000 PBMC in an ELISPOT anti-IL-4 coated cell culture plate well for a final concentration of each peptide of 10 μg/ml. Identically diluted media only was used for the no peptide control wells (media only). • A combination preparation containing non-Alt a 1 soluble peptides (40.2, 41.2, 43.2, 44.2, 46.2, 47.2.1, 56.2, 57.2.1, 60.2, 62.2.1, 67.2, 71.3), called Alt a Other Sol. Each peptide was diluted from water stock to 2 mg/ml in sterile distilled water. Then 10 μl of each peptide required for the combined preparation was mixed and brought up to 1 ml in media, Then 100 μl of this peptide/media mix was added to 100 μl of media containing 350,000 PBMC in an ELISPOT anti-IL-4 coated cell culture plate well for a final concentration of each peptide at 10 μg/ml. Identically diluted media only was used for the no peptide control wells (media only). • A combination preparation containing non-Alt a 1 DMSO peptides (39.2, 42.2, 45.2, 48.2.1, 50.2, 51.2.1, 61.2.1, 66.3.1, 68.2.1, 70.2, 71.2, 72.2), called Alt a Other DMSO. Each peptide was diluted from DMSO stock to 2 mg/ml in sterile distilled water. Then 10 ul of each peptide required for the combined preparation was mixed and brought up to 1 ml in media, Then 100 μl of this peptide/media mix was added to 100 μl of media containing 350,000 PBMC in an ELISPOT anti-IL-4 coated cell culture plate well for a final concentration of each peptide at 10 μg/ml. Identically diluted media only was used for the no peptide control wells (media only).
For `CC(C)C[C@H](NC(=O)[C@@H](NC(=O)[C@H](C)NC(=O)[C@@H](N)[C@@H](C)O)[C@@H](C)O)C(=O)N1CCC[C@H]1C(=O)N[C@@H](CC(N)=O)C(=O)N[C@@H](Cc1ccc(O)cc1)C(=O)N[C@H](C(=O)N[C@@H](CCCNC(=N)N)C(=O)N[C@@H](C)C(=O)NCC(=O)NCC(=O)N[C@@H](CC(N)=O)C(=O)NCC(=O)N1CCC[C@H]1C(=O)O)C(C)C` [Peptide 37.4.1, TATLPNYVRAGGNGP] (H-TATLPNYVRAGGNGP-OH), the solubility is above 2500 µg/mL.
Then `CC(C)C[C@H](NC(=O)CNC(=O)[C@H](CC(C)C)NC(=O)[C@H](CC(C)C)NC(=O)[C@H](CC(C)C)NC(=O)[C@H](Cc1ccc(O)cc1)NC(=O)[C@H](C)NC(=O)[C@H](C)NC(=O)[C@H](CC(C)C)NC(=O)[C@H](Cc1c[nH]cn1)NC(=O)[C@H](CCCCN)NC(=O)[C@@H](N)CC(C)C)C(=O)NCC(=O)NCC(=O)N[C@@H](CC(N)=O)C(=O)O` [Peptide 57.2.1, LKHLAAYLLLGLGGN] (H-LKHLAAYLLLGLGGN-OH), with above 2500 µg/mL; and `CC(C)C[C@H](NC(=O)[C@@H](NC(=O)CNC(=O)[C@@H](NC(=O)[C@H](CO)NC(=O)[C@@H](NC(=O)[C@H](Cc1ccccc1)NC(=O)[C@@H](NC(=O)CNC(=O)[C@H](C)N)C(C)C)C(C)C)[C@@H](C)O)[C@@H](C)O)C(=O)NCC(=O)NCC(=O)NCC(=O)N[C@@H](CCC(N)=O)C(=O)N[C@@H](CCC(=O)O)C(=O)O` [Peptide 45.2, AGVFVSTGTLGGGQE] (H-AGVFVSTGTLGGGQE-OH), with below 2500 µg/mL.
On to `CC(C)C[C@H](NC(=O)[C@H](C)NC(=O)[C@@H](NC(=O)[C@H](CCC(N)=O)NC(=O)[C@H](CC(N)=O)NC(=O)[C@@H](N)CCCCN)C(C)C)C(=O)N[C@@H](CC(N)=O)C(=O)N1CCC[C@H]1C(=O)N[C@H](C(=O)N[C@@H](CC(N)=O)C(=O)N[C@H](C(=O)N[C@H](C(=O)N[C@@H](Cc1ccccc1)C(=O)N[C@@H](CC(=O)O)C(=O)N[C@@H](C)C(=O)O)C(C)C)[C@@H](C)O)C(C)C` [Peptide 51.2.1, KNQVALNPVNTVFDA] (H-KNQVALNPVNTVFDA-OH), for which the solubility was below 2500 µg/mL.
Turning to `CC(C)C[C@H](NC(=O)[C@H](Cc1ccccc1)NC(=O)[C@H](CO)NC(=O)[C@H](CC(N)=O)NC(=O)[C@H](CCC(=O)O)NC(=O)CNC(=O)[C@@H](NC(=O)[C@H](CO)NC(=O)[C@H](Cc1ccc(O)cc1)NC(=O)[C@H](Cc1c[nH]c2ccccc12)NC(=O)[C@H](CCCCN)NC(=O)[C@H](Cc1c[nH]cn1)NC(=O)[C@@H](N)CC(=O)O)C(C)C)C(=O)N[C@@H](CC(=O)O)C(=O)N[C@@H](Cc1ccccc1)C(=O)O` [Peptide L10-2.01, DHKWYSVGENSFLDF] (H-DHKWYSVGENSFLDF-OH), the solubility is above 2500 µg/mL.
Turning to `CC(C)C[C@H](NC(=O)CNC(=O)[C@H](C)NC(=O)[C@H](C)N)C(=O)N[C@@H](C)C(=O)N[C@@H](C)C(=O)N[C@@H](C)C(=O)N[C@@H](C)C(=O)N1CCC[C@H]1C(=O)N[C@@H](CC(C)C)C(=O)N[C@@H](CCC(=O)O)C(=O)N[C@@H](CO)C(=O)N[C@@H](CCCNC(=N)N)C(=O)N[C@@H](CCC(N)=O)C(=O)N[C@@H](CC(=O)O)C(=O)O` [Peptide 33.2, AAGLAAAAPLESRQD] (H-AAGLAAAAPLESRQD-OH), the solubility is above 2500 µg/mL.
To `CC[C@H](C)[C@H](N)C(=O)N[C@@H](C)C(=O)N[C@@H](CO)C(=O)N[C@@H](CC(C)C)C(=O)N[C@@H](Cc1ccccc1)C(=O)N[C@@H](C)C(=O)N[C@@H](C)C(=O)N[C@@H](C)C(=O)NCC(=O)N[C@@H](CC(C)C)C(=O)N[C@@H](C)C(=O)N[C@@H](C)C(=O)N[C@@H](C)C(=O)N[C@@H](C)C(=O)N1CCC[C@H]1C(=O)O` [Peptide L6-2, IASLFAAAGLAAAAP] belongs below 2500 µg/mL; to `CC[C@H](C)[C@H](NC(=O)[C@H](CC(=O)O)NC(=O)[C@H](CC(=O)O)NC(=O)[C@@H](N)CO)C(=O)N[C@H](C(=O)N[C@@H](Cc1ccc(O)cc1)C(=O)N[C@H](C(=O)N[C@@H](C)C(=O)N[C@H](C(=O)N[C@@H](C)C(=O)N[C@H](C(=O)N[C@@H](CC(C)C)C(=O)N1CCC[C@H]1C(=O)N[C@@H](CC(N)=O)C(=O)N[C@@H](Cc1ccc(O)cc1)C(=O)O)[C@@H](C)O)[C@@H](C)O)C(C)C)[C@@H](C)O` [Peptide 37.2, SDDITYVATATLPNY] (H-SDDITYVATATLPNY-OH), below 2500 µg/mL.
Take `CC[C@H](C)[C@H](NC(=O)[C@@H](NC(=O)[C@@H](NC(=O)[C@H](CC(C)C)NC(=O)[C@H](CCCCN)NC(=O)[C@H](CO)NC(=O)[C@@H](N)CC(C)C)C(C)C)[C@@H](C)O)C(=O)N[C@@H](C)C(=O)N[C@@H](CCCCN)C(=O)N[C@H](C(=O)N[C@@H](CC(=O)O)C(=O)N[C@@H](C)C(=O)N[C@H](C(=O)N[C@@H](CC(C)C)C(=O)N[C@@H](CC(N)=O)C(=O)O)[C@@H](C)O)C(C)C` [Peptide 56.2, LSKLVTIAKVDATLN] (H-LSKLVTIAKVDATLN-OH): the solubility was above 2500 µg/mL.
In the case of `CC[C@H](C)[C@H](NC(=O)[C@H](CCC(=O)O)NC(=O)[C@H](CC(=O)O)NC(=O)[C@@H]1CCCN1)C(=O)N[C@@H](CCC(N)=O)C(=O)NCC(=O)N[C@@H](Cc1ccccc1)C(=O)N1CCC[C@H]1C(=O)N[C@H](C(=O)N[C@H](C(=O)N[C@@H](CCCCN)C(=O)N[C@@H](CC(C)C)C(=O)N[C@@H](Cc1ccccc1)C(=O)N1CCC[C@H]1C(=O)N[C@@H](C)C(=O)O)[C@@H](C)CC)[C@@H](C)O` [Peptide 43.2, PDEIQGFPTIKLFPA] (H-PDEIQGFPTIKLFPA-OH), the solubility was above 2500 µg/mL.
Take `CC[C@H](C)[C@H](NC(=O)[C@H](CCCCN)NC(=O)[C@H](Cc1c[nH]c2ccccc12)NC(=O)[C@@H](NC(=O)[C@H](Cc1ccc(O)cc1)NC(=O)[C@@H](N)CC(=O)O)C(C)C)C(=O)N[C@@H](CO)C(=O)N[C@@H](CCC(=O)O)C(=O)N[C@@H](Cc1ccccc1)C(=O)N[C@@H](Cc1ccc(O)cc1)C(=O)NCC(=O)N[C@@H](CCCNC(=N)N)C(=O)N[C@@H](CCCCN)C(=O)N1CCC[C@H]1C(=O)N[C@@H](CCC(=O)O)C(=O)O` [Peptide 34.3, DYVWKISEFYGRKPE] (H-DYVWKISEFYGRKPE-OH): the solubility is above 2500 µg/mL.
In the case of `CC[C@H](C)[C@H](NC(=O)[C@H](CC(=O)O)NC(=O)[C@H](CC(=O)O)NC(=O)[C@H](CO)NC(=O)[C@@H](NC(=O)[C@H](CCCCN)NC(=O)[C@H](CCC(N)=O)NC(=O)[C@@H](N)CCCCN)C(C)C)C(=O)N[C@H](C(=O)N[C@@H](Cc1ccc(O)cc1)C(=O)N[C@H](C(=O)N[C@@H](C)C(=O)N[C@H](C(=O)N[C@@H](C)C(=O)N[C@H](C(=O)O)[C@@H](C)O)[C@@H](C)O)C(C)C)[C@@H](C)O` [Peptide L10-3, KQKVSDDITYVATAT] (H-KQKVSDDITYVATAT-OH), the solubility is above 2500 µg/mL.
Then `CC[C@H](C)[C@H](NC(=O)[C@H](CC(N)=O)NC(=O)[C@H](Cc1ccccc1)NC(=O)CNC(=O)[C@H](CC(C)C)NC(=O)[C@H](CO)NC(=O)[C@H](CC(N)=O)NC(=O)[C@H](Cc1ccc(O)cc1)NC(=O)[C@H](Cc1ccc(O)cc1)NC(=O)[C@@H](NC(=O)CNC(=O)[C@@H](N)CCC(=O)O)[C@@H](C)O)C(=O)N[C@@H](CCCCN)C(=O)N[C@@H](C)C(=O)N[C@H](C(=O)O)[C@@H](C)O` [Peptide 35.2, EGTYYNSLGFNIKAT] (H-EGTYYNSLGFNIKAT-OH), with below 2500 µg/mL.
